In brackets after ≈: the same amount, converted by molar mass. Where two headings read alike, the source gives them in different places.
What was measured:
[1] = test system: patients undergoing CABG surgery; conditions: ten minutes after drug administration versus before; cited from earlier work
[2] = after 6 hours (equilibrium), AHF patients, cited from earlier work
[3] = test system: patients with severe CHF; conditions: oral, cited from earlier work
[4] = test system: patients with NYHA class III or IV HF and pulmonary vascular resistance of 200 dynes/s/cm or more; set-up: dose or concentration left out as unconfirmed; conditions: cited from earlier work
[5] = test system: patients with left ventricular dysfunction and/or pulmonary hypertension; conditions: 50 μg/kg loading then 0.5 μg/kg/minute, n=15; cited from earlier work
[6] = test system: refractory HF patients; conditions: 12-month study, cited from earlier work
[7] = test system: patients with CHF; set-up: dose or concentration left out as unconfirmed; conditions: 15 minutes post-dosing, cited from earlier work
[8] = test system: patients with endstage CHF; conditions: compared with the preceding 3 months; cited from earlier work
[9] = test system: pediatric patients at high risk for developing low cardiac output syndrome (LCOS); conditions: cited from earlier work
[10] = pH solubility studies on Milrinone (saturated solubility in different buffers); format: physicochemical; conditions: for solubility at 24 h: thermodynamic from solid
Description: 1. pH 1.2-Hydrochloric Acid Buffer
3. pH 6.8-Phosphate Buffer
4. pH 7.4-Phosphate Buffer.
1. 2 mL buffer solution is placed into a 8 mL USP Type I clear glass vial (with screw cap and PTFE septa)
3. The addition of Milrinone is continued till the formation of saturated solution.
4. The pH of the saturated solution is measured after the addition of Milrinone.
5. If there is any difference in pH more than 0.1 units is observed when compared to the initial pH, the pH was adjusted with acid or base respectively to bring it to the initial pH.
6. The vials are closed with screw cap and kept for mixing using rotary tube shaker for 24 h.

[11] = test system: Human internal mammary arterial rings; conditions: rings pretreated with milrinone; cited from earlier work
[12] = test system: patients undergoing cardiopulmonary bypass; conditions: cited from earlier work
[13] = test system: pediatric patients with low cardiac output; conditions: intravenous; cited from earlier work
[14] = test system: patients with class III or IV CHF; conditions: after milrinone therapy; 5 patients at baseline; cited from earlier work
[15] = test system: patients with severe CHF; conditions: cited from earlier work

Q: With `CNC[C@H](O)c1ccc(O)c(O)c1` [epinephrine] as the compound, how does the “change in IMA flow” value [1] read?
A: unchanged

Q: For `Cc1[nH]c(=O)c(C#N)cc1-c1ccncc1` [milrinone, 1,2-dihydro-3-cyano-6-methyl-5-(4-pyridinyl)-2(1H)-pyridinone], which plasma milrinone concentration ([2]; continuous infusion 0.25 μg/kg after loading dose) is on record?
A: 97 ng/mL

Q: What about the plasma milrinone concentration ([2]; continuous infusion 0.5 μg/kg after loading dose) of the same compound?
A: 197 ng/mL

Q: What about the plasma milrinone concentration ([2]; continuous infusion 0.75 μg/kg after loading dose) of the same compound?
A: 284 ng/mL

Q: And the mortality rate ([3]; at 1 year of therapy)?
A: 63%

Q: What about the mortality rate ([3]; at 6 months) of the same compound?
A: 39%

Q: What about the “patients with adverse effects” value ([3]; average 27 mg/day) of the same compound?
A: 11%

Q: What about the “patients with drug withdrawal due to adverse effects” value ([3]; average 27 mg/day) of the same compound?
A: 4%

Q: And the “patients improved by at least one New York Heart Association functional class” value ([3]; within 1 month of therapy, remaining 94 patients)?
A: 51%

Q: And the “mean decrease in pulmonary vascular resistance” value ([4]; at 5 minutes)?
A: 31%

Q: And the duration of response [4]?
A: at least 20 minutes

Q: What about the “weaning from cardiopulmonary bypass” value [5] of the same compound?
A: all patients were successfully weaned

Q: What about the emergency room admissions ([6]; from 21 in previous year) of the same compound?
A: 10

Q: What about the hospital admissions ([6]; from 75 in previous year) of the same compound?
A: 34

Q: What about the hospital days ([6]; from 528 in previous year) of the same compound?
A: 150

Q: And the pulmonary vascular resistance ([7]; from 3.9)?
A: 2.5 Wood units

Q: And the Cardiac output ([7]; from 4.0)?
A: 5.1 L/min

Q: What about the “pulmonary capillary wedge pressure” value ([7]; from 20) of the same compound?
A: 15 mmHg

Q: What about the “mean pulmonary artery pressure” value ([7]; from 35) of the same compound?
A: 28 mmHg

Q: And the “drop in number of hospitalizations” value [8]?
A: fourfold

Q: And the “patients who developed LCOS” value ([9]; high-dose group, within 36 hours)?
A: 9.6%

Q: What about the “patients with prolonged hospital stays (longer than 15 days)” value ([9]; high-dose group) of the same compound?
A: 13.5%

Q: What about the “RRR of LCOS” value ([9]; low-dose group versus placebo, not statistically significant) of the same compound?
A: 34%

Q: And the “patients who developed LCOS” value ([9]; low-dose group)?
A: 17.7%

Q: And the “patients with prolonged hospital stays (longer than 15 days)” value ([9]; low-dose group)?
A: 8.2%

Q: And the solubility ([10]; acidic pH, decreases gradually with increase in pH)?
A: highly soluble

Q: And the solubility at 24 h ([10]; aqueous buffer, pH 4.5 Acetate Buffer)?
A: 1830 µg/mL (≈ 8.64 mM)

Q: What about the solubility at 24 h ([10]; aqueous buffer, pH 6.8 Phosphate Buffer) of the same compound?
A: 742 µg/mL (≈ 3.51 mM)

Q: And the solubility at 24 h ([10]; aqueous buffer, pH 7.4 Phosphate Buffer)?
A: 603 µg/mL (≈ 2.85 mM)

Q: What about the solubility at 24 h ([10]; hydrochloric acid buffer, simulated gastric fluid, pH 1.2 Hydrochloric Acide Buffer) of the same compound?
A: 25400 µg/mL (≈ 120 mM)

Q: What about the “vasoconstriction by K+, ET-1, U46619 and phenylephrine” value [11] of the same compound?
A: significantly less vasoconstricition

Q: What about the “Plasma concentrations of IL1-beta and IL6” value ([12]; after CPB, versus control group, 0.5 μg/kg/minute for 24 hours) of the same compound?
A: significantly lower

Q: What about the “concentrations of cyclic adenosine monophosphate” value ([12]; versus controls) of the same compound?
A: significantly increased

Q: What about the “change in IMA flow” value [1] of the same compound?
A: 24%

Q: What about the “average peak plasma concentration” value [13] of the same compound?
A: 235 ng/mL

Q: What about the “mean decrease in blood pressure” value [13] of the same compound?
A: 12%

Q: What about the “inducible VT during programmed right ventricular stimulation” value [14] of the same compound?
A: none of the patients experienced inducible VT

Q: What about the “left ventricular end-diastolic pressure” value ([15]; after median short-term infusion 75 μg/kg IV, from 27 at baseline) of the same compound?
A: 18 mmHg

Q: What about the “increase in left ventricular ejection fraction” value ([15]; following a 7.5 mg oral dose, 10 patients on drug for 6 months or longer) of the same compound?
A: 27%

Q: What about the “decrease in mean arterial pressure” value ([15]; intravenous) of the same compound?
A: 6%

Q: What about the “increase in peak positive first derivative of left ventricular pressure (dP/dT)” value ([15]; intravenous) of the same compound?
A: 28%

Q: What about the “increase in resting heart rate” value ([15]; intravenous) of the same compound?
A: 8%

Q: What about the “fever, thrombocytopenia, or gastrointestinal toxicity” value ([15]; oral therapy, average 29 mg daily, up to 11 months) of the same compound?
A: No evidence

— US10517833B2 (Cardiora Pty Ltd., priority 2011, dated 2019)
